Data taken from US6872722B2, “Therapies for tissue damage resulting from ischemia” (Pfizer Inc, priority 2001, dated 2005).

O=c1ccc(S(=O)(=O)c2cccc(Br)c2)n[nH]1 [Example 4I, 6-(3-Bromo-benzenesulfonyl)-2H-pyridazin-3-one]
melting point: > 220 °C
